This assay relates to Plasmodium berghei. As to the kind of experiment: Luciferase/luciferin-expressing antifolate-resistant parasites were used to infect a culture of HepG2 cells that were pre-incubated with compounds. Infected hepatocytes emit light due to the luciferase reaction. Assay results are presented as the percent inhibition of light emission compared to control. […]. The assay is classed as functional. As to conditions: sporozoite; for IC90: read-out: LUCIFERASE INFECTION ASSAY - IC90.

Setting [1] is: read-out: LUCIFERASE INFECTION ASSAY - IC50.

pIC50: −log10 of the molar value.

Turning to `Cc1cc(C)cc(Nc2ncnc3ccsc23)c1`, the IC90 is over 10 µM. For the same compound, the pIC50 (HEPG2TOX_HILL_SLOPE 6.98, HEPG2TOX_R_SQUARED 0.366, PBLUC_HILL_SLOPE 11.4, PBLUC_R_SQUARED 0.0607, read-out: LUCIFERASE INFECTION ASSAY - IC50) is under 5.00.
Regarding `CS(=O)(=O)c1sc(NC(=O)Nc2ccc(Cl)cc2)c2c1C=CCC2`, the IC90 was over 8.62 µM. In addition, under setting [1], the pIC50 is under 5.06.
In the case of `CC(NCC(=O)N1c2ccc(S(N)(=O)=O)cc2CC1C)C1CC2CCC1C2` (centres undefined), the 90% effect concentration (IC90) turned out to be 7.51 µM. Moreover, the negative logarithm of the IC50 (pIC50) (FFLUC_HILL_SLOPE 16.6, FFLUC_R_SQUARED 0.154, PBLUC_HILL_SLOPE 1.1, PBLUC_R_SQUARED 0.764, read-out: LUCIFERASE INFECTION ASSAY - IC50) was 5.99.
`N=C1NC(=Nc2ccc(Cl)c(Cl)c2)c2ccccc21`: the IC90 was over 10 µM. Moreover, the pIC50 (PBLUC_HILL_SLOPE 9.86, PBLUC_R_SQUARED 0.113, read-out: LUCIFERASE INFECTION ASSAY - IC50) is 5.02.
With `O=C(Cc1cccc2ccccc12)NCC(=O)Nc1nc(-c2ccccc2)cs1`, the concentration for an effect of 90% (IC90) was over 10 µM. Besides, the negative-log IC50 (pIC50) under setting [1] is under 5.00.
For `CN(Cc1ccccc1Cl)C(=O)c1ccc(NC(=O)c2ccco2)cc1`, the IC90 is over 10 µM. The pIC50 (PBLUC_HILL_SLOPE 1.69, PBLUC_R_SQUARED 0.585, read-out: LUCIFERASE INFECTION ASSAY - IC50) was 5.10.
Regarding `O=C(Nc1ccc(-c2nc3ccccc3[nH]2)cc1)c1cccc(N2CCCS2(=O)=O)c1`, the concentration for an effect of 90% (IC90) came to 9.62 µM. Moreover, the negative-log IC50 (pIC50) (PBLUC_HILL_SLOPE 5.48, 3.67, PBLUC_R_SQUARED 0.355, 0.637, read-out: LUCIFERASE INFECTION ASSAY - IC50) is 5.23.
As for `N#CC(C#N)=NNc1ccc(-c2ccccc2)cc1`, the IC90 was over 10 µM. Also, the negative-log IC50 (pIC50) (HEPG2TOX_HILL_SLOPE 3.84, HEPG2TOX_R_SQUARED 0.689, PBLUC_HILL_SLOPE 2.62, PBLUC_R_SQUARED 0.817, read-out: LUCIFERASE INFECTION ASSAY - IC50) is 5.33.
For the compound `O=C1CN(C(=O)COc2ccc(F)cc2Br)CCN1`, the IC90 was over 10 µM. Further, the pIC50 under setting [1] is under 5.00.
On to `CC(C)(C)OC(=O)Nc1ccc(C(=O)Nc2cccc(S(=O)(=O)NC3CC3)c2)cc1`, for which the IC90 turned out to be 3.66 µM. Moreover, the negative logarithm of the IC50 (pIC50) (HEPG2TOX_HILL_SLOPE 12, HEPG2TOX_R_SQUARED 0.663, PBLUC_HILL_SLOPE 19.5, PBLUC_R_SQUARED 0.101, read-out: LUCIFERASE INFECTION ASSAY - IC50) is 5.49.
Take `O=C(NC1CC1)N1CCN(S(=O)(=O)c2ccc3c(c2)OCCCO3)CC1`: the concentration for an effect of 90% (IC90) was over 10 µM. Moreover, the pIC50 under setting [1] is under 5.00.
Consider `Cc1sc2nc(CSc3ccccc3)nc(N3CCN(CC(=O)NC4CC4)CC3)c2c1C`, for which the IC90 is over 10 µM. In addition, for the setting “PBLUC_HILL_SLOPE 2.61, PBLUC_R_SQUARED 0.67, read-out: LUCIFERASE INFECTION ASSAY - IC50”, the pIC50 is 5.29.
Turning to `O=C(Nc1ccc(OC(F)(F)F)cc1)Nc1nnc(C(F)(F)F)s1`, the concentration for an effect of 90% (IC90) turned out to be 0.377 µM. Besides, the negative logarithm of the IC50 (pIC50) (HEPG2TOX_HILL_SLOPE 2.11, HEPG2TOX_R_SQUARED 0.979, PBLUC_HILL_SLOPE 11.8, PBLUC_R_SQUARED 0.539, read-out: LUCIFERASE INFECTION ASSAY - IC50) was 6.50.
Regarding `COc1cccc(NC(=O)c2cccc(C3(CNc4cccc(OC(F)(F)F)c4)CC3)c2)c1`, the 90% effect concentration (IC90) is over 10 µM. The pIC50 (PBLUC_HILL_SLOPE 3.47, PBLUC_R_SQUARED 0.3, read-out: LUCIFERASE INFECTION ASSAY - IC50) is 5.04.
With `COc1cc(OC)cc(C(=O)Nc2nc3ccccn3c2C(=O)NC2CCCC2)c1`, the IC90 stood at 3.15 µM. For the same compound, under “PBLUC_HILL_SLOPE 13.4, PBLUC_R_SQUARED 0.275, read-out: LUCIFERASE INFECTION ASSAY - IC50”, the pIC50 was 5.57.
For `Cc1cc(C)cc(NC(=O)C(NCC(C(C)C)N2CCOCC2)c2ccccc2)c1` (centres undefined), the IC90 was over 10 µM. Besides, the pIC50 (PBLUC_HILL_SLOPE 13.4, 2.47, PBLUC_R_SQUARED 0.208, 0.834, read-out: LUCIFERASE INFECTION ASSAY - IC50) was 5.18.
As for `Nc1ncc(-c2cc(C(F)(F)F)cc(C(F)(F)F)c2)cc1-c1cncc2ccccc12`, the 90% effect concentration (IC90) was over 7.62 µM. The negative-log IC50 (pIC50) under setting [1] is under 5.12.
As for `COc1cc(/C=N/NC(=S)Nc2cc(Cl)ccc2Cl)ccc1OS(=O)(=O)c1ccc(C)cc1`, the concentration for an effect of 90% (IC90) was over 6.29 µM. For the same compound, under setting [1], the pIC50 is under 5.20.
Take `O=C(NCc1ccc(N2CCCCC2)nc1)c1cccc2c[nH]nc12`: the IC90 was over 10 µM. Moreover, the negative-log IC50 (pIC50) under setting [1] was under 5.00.
Regarding `Cc1csc(C(C#N)C(=O)COC(=O)c2ccccc2SCC(=O)N(C)C)n1` (centres undefined), the 90% effect concentration (IC90) was over 10 µM. Also, the negative logarithm of the IC50 (pIC50) under setting [1] was under 5.00.
As to `O=C1c2ccccc2NC(c2cc(Br)cs2)N1C1CC1` (centres undefined), the IC90 is over 10 µM. Further, the pIC50 under setting [1] is under 5.00.
`CCOC(=O)C1=C(C)NC2=C(C(=O)C(c3c(F)cccc3Cl)CC2)C1c1ccc(Cl)cc1Cl` (centres undefined): the 90% effect concentration (IC90) is over 6.49 µM. Besides, the pIC50 (FFLUC_HILL_SLOPE 7.96, FFLUC_R_SQUARED 0.479, HEPG2TOX_HILL_SLOPE 1.9, HEPG2TOX_R_SQUARED 0.947, PBLUC_HILL_SLOPE 15.9, PBLUC_R_SQUARED 0.177, read-out: LUCIFERASE INFECTION ASSAY - IC50) was 5.22.
`CC(c1cccnc1)N(C)C(=O)c1cc(NCc2ccc3c(c2)CCO3)cc(S(=O)(=O)N2CCCC2)c1` (centres undefined): the 90% effect concentration (IC90) is over 6.34 µM. For the same compound, the negative logarithm of the IC50 (pIC50) under setting [1] is under 5.20.
For `Cc1ccc(F)cc1NS(=O)(=O)c1ccc(-n2ncc(Cl)c(Cl)c2=O)cc1`, the concentration for an effect of 90% (IC90) was found to be 6.47 µM. Also, the negative-log IC50 (pIC50) (HEPG2TOX_HILL_SLOPE 2.56, 7.18, HEPG2TOX_R_SQUARED 0.970, 0.512, PBLUC_HILL_SLOPE 2.23, 0.224, PBLUC_R_SQUARED 0.767, 0.129, read-out: LUCIFERASE INFECTION ASSAY - IC50) is 5.68.
As for `CC(=O)c1cnc(N)nc1C`, the 90% effect concentration (IC90) was over 21.8 µM. Further, the pIC50 under setting [1] is under 4.66.
The like results for `CC(C)(C)c1ccc(C(=O)Nc2cc(Cl)cc(Cl)c2)cc1` were, in that order, over 10.2 µM and under 4.99.
As to `Oc1c(Cl)cc(Cl)cc1C1Nc2cc(Cl)c(C(F)(F)F)cc2N1` (centres undefined), the IC90 was found to be 0.127 µM. The negative logarithm of the IC50 (pIC50) (HEPG2TOX_HILL_SLOPE 1.05, HEPG2TOX_R_SQUARED 0.96, PBLUC_HILL_SLOPE 13.2, PBLUC_R_SQUARED 0.588, read-out: LUCIFERASE INFECTION ASSAY - IC50) was 6.97.
`Cc1nn(CC(=O)Nc2cccc(Cl)c2)c(C)c1Oc1ccccc1`: the 90% effect concentration (IC90) was over 9.27 µM. Moreover, under setting [1], the pIC50 was 5.27.
For `NC(=O)c1ccc(-c2ccnc3n[nH]c(-c4cccc(F)c4)c23)cc1`, the IC90 came out at 3.73 µM. For the same compound, the pIC50 (HEPG2TOX_HILL_SLOPE 2.67, HEPG2TOX_R_SQUARED 0.872, PBLUC_HILL_SLOPE 9.91, PBLUC_R_SQUARED 0.595, read-out: LUCIFERASE INFECTION ASSAY - IC50) was 5.52.
Consider `Cc1ccc(C(NCC(=O)Nc2sccc2C(N)=O)c2cccs2)cc1` (centres undefined), for which the 90% effect concentration (IC90) came out at 3.67 µM. Under “PBLUC_HILL_SLOPE 4.31, PBLUC_R_SQUARED 0.32, read-out: LUCIFERASE INFECTION ASSAY - IC50”, the pIC50 was 5.66.
With `CCN(c1ccccc1)S(=O)(=O)c1ccc(C(=O)NCC(c2ccccc2OC)N2CCCC2)cc1` (centres undefined), the IC90 came out at 3.69 µM. Where the note is “HEPG2TOX_HILL_SLOPE 12.4, HEPG2TOX_R_SQUARED 0.631, PBLUC_HILL_SLOPE 22.9, PBLUC_R_SQUARED 0.104, read-out: LUCIFERASE INFECTION ASSAY - IC50”, the negative logarithm of the IC50 (pIC50) is 5.47.
For the compound `COc1cc(-n2cnc3cnc(Nc4cccc(C(F)(F)F)c4)cc32)cc(OC)c1OC`, the concentration for an effect of 90% (IC90) is over 10 µM. The negative logarithm of the IC50 (pIC50) under setting [1] is under 5.00.
Turning to `Cc1cc(-c2csc(Cc3ccccc3)n2)c(C)n1NC(=O)c1nn(C)c(=O)c2ccccc12`, the IC90 is over 10 µM. Besides, the pIC50 under setting [1] was under 5.00.
Consider `Cc1cccc(COc2cccc(C(=O)Nc3cccc(Cn4ccnc4)c3)c2)c1`, for which the 90% effect concentration (IC90) is over 10 µM. In addition, the pIC50 (HEPG2TOX_HILL_SLOPE 5.55, HEPG2TOX_R_SQUARED 0.818, PBLUC_HILL_SLOPE 3.46, PBLUC_R_SQUARED 0.301, read-out: LUCIFERASE INFECTION ASSAY - IC50) is 5.17.
Consider `c1ccc(CCNc2nn3c(-c4ccsc4)cnc3s2)nc1`, for which the concentration for an effect of 90% (IC90) was over 10.1 µM. For the same compound, the pIC50 under setting [1] is under 5.00.
The like results for `O=C(c1cc(S(=O)(=O)Nc2cccc(-n3cccn3)c2)c[nH]1)N1CCCC1` were, in that order, over 10 µM and 5.02.
Regarding `COC(=O)c1c(N)[nH]c2cc(C(F)(F)F)ccc12`, the IC90 is over 12.8 µM. Also, under setting [1], the pIC50 was under 4.89.
The like results for `O=C(CC1(O)C(=O)Nc2ccc(Br)cc21)c1ccc2c(c1)OCO2` (centres undefined) were, in that order, over 8.46 µM and under 5.07.
In the case of `C=CCNC(=O)CSC1=CC(=O)CC(c2ccc(Cl)cc2)S1` (centres undefined), the 90% effect concentration (IC90) was over 9.32 µM. Further, the pIC50 under setting [1] was under 5.03.
Consider `CC(C)N1C(=O)/C(=N\NC(=S)Nc2cccnc2)c2ccccc21`, for which the 90% effect concentration (IC90) came out at 5.01 µM. Also, the negative logarithm of the IC50 (pIC50) (FFLUC_HILL_SLOPE 0.241, FFLUC_R_SQUARED 0.177, HEPG2TOX_HILL_SLOPE 1.23, HEPG2TOX_R_SQUARED 0.88, PBLUC_HILL_SLOPE 2.27, PBLUC_R_SQUARED 0.476, read-out: LUCIFERASE INFECTION ASSAY - IC50) is 5.72.
Regarding `CCCCCCC(/C=N/NC(=O)c1ccccc1O)=C\c1ccccc1`, the IC90 was over 10 µM. The pIC50 under setting [1] was under 5.00.
Take `CS(=O)(=O)c1nc2ccccc2n1Cc1cc(=O)n2ccccc2n1`: the IC90 was over 10 µM. Besides, where the note is “PBLUC_HILL_SLOPE 1.24, PBLUC_R_SQUARED 0.679, read-out: LUCIFERASE INFECTION ASSAY - IC50”, the pIC50 is 5.26.

(Values after ChEMBL document CHEMBL4483862, “Open-source discovery of chemical leads for next-generation chemoprotective antimalarials” (2018).)
